ChEMBL document CHEMBL4742393, “Compounds for treatment of hypoproliferative disorders” (2019)
Each block holds one compound with its values, some of them ahead of it. Active and inactive are the calls of the source. No cut-off for these calls is given here.

Legend:
Mus musculus = assay: Induction of rescue of anemia in RPS19-deficient mouse model for DBA assessed as improvement in erythrocytes production at 10 mg/kg, po dosed every 12 hrs for 5 times and measured 48 hrs after last dose; type: functional, organism-based; settings: time 108.0 hrs
[1] = target: T1, CDK8/CDK19 (Mus musculus) (UniProt Q8R3L8+Q8BWD8); assay: Inhibition of CDK8/CDK19 assessed as rescue of proliferation of RPS19-deficient mouse erythroid progenitor cells by cell-based phenotypic screening assay; type: tissue-based
T1 sequence (Q8BWD8 whole entry, looked up): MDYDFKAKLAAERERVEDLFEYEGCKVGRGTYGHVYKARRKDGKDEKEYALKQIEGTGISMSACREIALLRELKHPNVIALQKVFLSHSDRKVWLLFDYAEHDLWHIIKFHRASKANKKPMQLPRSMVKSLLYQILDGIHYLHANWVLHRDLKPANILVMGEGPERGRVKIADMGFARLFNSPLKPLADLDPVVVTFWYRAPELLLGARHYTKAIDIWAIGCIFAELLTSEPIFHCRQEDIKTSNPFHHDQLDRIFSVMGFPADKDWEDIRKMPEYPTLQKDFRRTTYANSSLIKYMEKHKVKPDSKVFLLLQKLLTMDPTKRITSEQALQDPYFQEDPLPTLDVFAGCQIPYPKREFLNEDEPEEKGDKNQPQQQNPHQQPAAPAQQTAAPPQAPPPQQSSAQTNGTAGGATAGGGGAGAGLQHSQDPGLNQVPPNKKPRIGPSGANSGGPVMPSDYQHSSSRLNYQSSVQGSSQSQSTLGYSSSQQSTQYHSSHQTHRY
T1 sequence (Q8R3L8 whole entry, looked up): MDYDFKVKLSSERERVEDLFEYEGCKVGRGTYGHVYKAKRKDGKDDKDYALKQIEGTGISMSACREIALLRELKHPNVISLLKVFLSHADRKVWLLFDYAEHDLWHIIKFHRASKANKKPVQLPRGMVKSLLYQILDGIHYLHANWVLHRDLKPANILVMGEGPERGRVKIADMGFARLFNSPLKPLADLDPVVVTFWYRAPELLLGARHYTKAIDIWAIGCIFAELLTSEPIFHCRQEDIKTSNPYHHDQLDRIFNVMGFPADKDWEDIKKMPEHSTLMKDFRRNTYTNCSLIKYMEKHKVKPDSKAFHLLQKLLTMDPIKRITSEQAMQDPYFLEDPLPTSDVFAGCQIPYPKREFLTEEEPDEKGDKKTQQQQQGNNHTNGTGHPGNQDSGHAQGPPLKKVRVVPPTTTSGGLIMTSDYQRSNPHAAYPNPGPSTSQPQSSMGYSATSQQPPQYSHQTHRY

[2] = system: CD34-positive (myeloid/lymphoid) cell; assay: Rescue of proliferation of CD34+ erythroid progenitor cells isolated from DBA patient with RPS19 mutation at 200 nM measured at day 14 of culture; type: functional, tissue-based; settings: Homo sapiens, time 14.0 day
[3] = Rescue of cell survival defect in RPS19-deficient erythroid progenitor cells isolated from mouse model of DBA assessed as c-kit+ progenitor cell levels at 0.03 uM by 7-AAD dye based FACS analysis (reference value: 38%); type: functional
[4] = system: Erythroid progenitor cell; assay: Increase in erythroid maturation of erythroid progenitor cells isolated from DBA patient assessed as increase in CD71 and CD235a positive cells level measured at day 8 of culture by flow cytometry; type: functional, tissue-based; settings: Homo sapiens
[5] = system: Erythroid progenitor cell; assay: Rescue of proliferation of CD34+ erythroid progenitor cells isolated from DBA patient with […] mutation at 200 nM measured at day 14 of culture; type: functional, tissue-based; settings: Homo sapiens, time 14.0 day
[6] = system: CD34-positive (myeloid/lymphoid) cell; assay: Rescue of proliferation of CD34+ erythroid progenitor cells isolated from DBA patient with RPS26 mutation at 200 nM measured at day 14 of culture; type: functional, tissue-based; settings: Homo sapiens, time 14.0 day
[7] = Rescue of cell survival defect in RPS19-deficient erythroid progenitor cells isolated from mouse model of DBA assessed as live cell levels at 0.03 uM by 7-AAD dye based FACS analysis (reference value: 31%); type: functional
[8] = target: Dual specificity tyrosine-phosphorylation-regulated kinase 1B (Homo sapiens) (UniProt Q9Y463); assay: Inhibition of DYRK1B (unknown origin) assessed as residual ligand binding level at 10000 nM relative to control
Dual specificity tyrosine-phosphorylation-regulated kinase 1B (Homo sapiens), sequence (Q9Y463 whole entry, looked up, canonical isoform): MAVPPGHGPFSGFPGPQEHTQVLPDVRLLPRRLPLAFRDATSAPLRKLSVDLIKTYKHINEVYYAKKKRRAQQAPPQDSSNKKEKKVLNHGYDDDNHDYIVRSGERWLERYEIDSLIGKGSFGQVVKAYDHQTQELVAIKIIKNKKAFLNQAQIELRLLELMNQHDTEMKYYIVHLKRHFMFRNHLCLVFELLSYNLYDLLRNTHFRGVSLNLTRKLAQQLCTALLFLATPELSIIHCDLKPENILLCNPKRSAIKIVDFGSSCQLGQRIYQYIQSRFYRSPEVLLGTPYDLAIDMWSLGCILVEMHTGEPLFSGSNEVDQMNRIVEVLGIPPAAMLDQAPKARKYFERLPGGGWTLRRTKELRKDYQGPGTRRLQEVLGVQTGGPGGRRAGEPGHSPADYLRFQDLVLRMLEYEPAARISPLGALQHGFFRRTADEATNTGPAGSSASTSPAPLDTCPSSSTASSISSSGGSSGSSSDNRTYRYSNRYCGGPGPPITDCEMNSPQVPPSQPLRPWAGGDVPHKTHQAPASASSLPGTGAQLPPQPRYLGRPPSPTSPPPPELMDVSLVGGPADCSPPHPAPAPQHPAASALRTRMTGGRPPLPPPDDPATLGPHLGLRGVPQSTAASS

[9] = target: Casein kinase I isoform alpha (Homo sapiens) (UniProt P48729); assay: Inhibition of CSNK1A1 (unknown origin) assessed as residual ligand binding level at 10000 nM relative to control
Homo sapiens = species on record: Homo sapiens; assay: Inhibition of GCN2 kinase domain 2 […] mutant (unknown origin) assessed as residual ligand binding level at 10000 nM relative to control
[10] = target: Casein kinase I isoform gamma-3 (Homo sapiens) (UniProt Q9Y6M4); assay: Inhibition of CSNK1G3 (unknown origin) assessed as residual ligand binding level at 10000 nM relative to control
Casein kinase I isoform gamma-3 (Homo sapiens), sequence (Q9Y6M4 whole entry, looked up, canonical isoform): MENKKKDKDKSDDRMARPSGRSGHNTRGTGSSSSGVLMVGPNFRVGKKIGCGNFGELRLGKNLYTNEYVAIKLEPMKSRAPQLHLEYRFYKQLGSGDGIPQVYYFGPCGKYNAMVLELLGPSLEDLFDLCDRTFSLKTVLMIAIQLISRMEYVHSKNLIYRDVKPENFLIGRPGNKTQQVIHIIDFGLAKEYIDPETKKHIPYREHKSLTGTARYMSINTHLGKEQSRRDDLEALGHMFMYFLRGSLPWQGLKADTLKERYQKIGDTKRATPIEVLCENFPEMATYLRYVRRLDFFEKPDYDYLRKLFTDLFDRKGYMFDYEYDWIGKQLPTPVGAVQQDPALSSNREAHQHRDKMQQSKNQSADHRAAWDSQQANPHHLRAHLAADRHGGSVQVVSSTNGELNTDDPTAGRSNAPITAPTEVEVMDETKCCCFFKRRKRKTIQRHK

[11] = target: Dual specificity tyrosine-phosphorylation-regulated kinase 1A (Homo sapiens) (UniProt Q13627); assay: Inhibition of DYRK1A (unknown origin) assessed as residual ligand binding level at 10000 nM relative to control
[12] = target: Ribosomal protein S6 kinase alpha-6 (Homo sapiens) (UniProt Q9UK32); assay: Inhibition of RSK4 c-terminal kinase domain (unknown origin) assessed as residual ligand binding level at 10000 nM relative to control
Ribosomal protein S6 kinase alpha-6 (Homo sapiens), sequence (Q9UK32 whole entry, the tested form may be a part, canonical isoform): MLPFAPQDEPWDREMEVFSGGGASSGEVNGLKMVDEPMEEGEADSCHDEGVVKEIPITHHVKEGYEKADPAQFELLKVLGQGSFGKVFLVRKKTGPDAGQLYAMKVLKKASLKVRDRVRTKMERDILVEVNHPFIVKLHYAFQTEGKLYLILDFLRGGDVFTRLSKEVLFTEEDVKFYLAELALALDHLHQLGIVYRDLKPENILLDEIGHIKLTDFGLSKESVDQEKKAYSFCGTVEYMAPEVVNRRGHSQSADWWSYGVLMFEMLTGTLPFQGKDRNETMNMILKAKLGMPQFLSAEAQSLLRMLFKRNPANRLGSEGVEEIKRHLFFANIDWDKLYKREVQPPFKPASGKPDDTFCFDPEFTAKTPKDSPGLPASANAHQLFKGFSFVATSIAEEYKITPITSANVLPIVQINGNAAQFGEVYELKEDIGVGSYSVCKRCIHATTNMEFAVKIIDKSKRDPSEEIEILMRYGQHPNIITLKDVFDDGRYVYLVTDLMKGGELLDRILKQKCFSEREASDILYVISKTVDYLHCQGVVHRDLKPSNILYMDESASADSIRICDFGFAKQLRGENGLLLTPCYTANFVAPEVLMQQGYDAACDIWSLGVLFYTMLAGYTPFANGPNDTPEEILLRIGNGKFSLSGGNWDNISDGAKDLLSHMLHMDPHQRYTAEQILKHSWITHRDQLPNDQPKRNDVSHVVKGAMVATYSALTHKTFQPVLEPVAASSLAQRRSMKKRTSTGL

[13] = target: Casein kinase I isoform gamma-2 (Homo sapiens) (UniProt P78368); assay: Inhibition of CSNK1G2 (unknown origin) assessed as residual ligand binding level at 10000 nM relative to control
[14] = target: Death-associated protein kinase 1 (Homo sapiens) (UniProt P53355); assay: Inhibition of DAPK1 (unknown origin) assessed as residual ligand binding level at 10000 nM relative to control
[15] = target: Homeodomain-interacting protein kinase 1 (Homo sapiens) (UniProt Q86Z02); assay: Inhibition of HIPK1 (unknown origin) assessed as residual ligand binding level at 10000 nM relative to control
Homeodomain-interacting protein kinase 1 (Homo sapiens), sequence (Q86Z02 whole entry, looked up, canonical isoform): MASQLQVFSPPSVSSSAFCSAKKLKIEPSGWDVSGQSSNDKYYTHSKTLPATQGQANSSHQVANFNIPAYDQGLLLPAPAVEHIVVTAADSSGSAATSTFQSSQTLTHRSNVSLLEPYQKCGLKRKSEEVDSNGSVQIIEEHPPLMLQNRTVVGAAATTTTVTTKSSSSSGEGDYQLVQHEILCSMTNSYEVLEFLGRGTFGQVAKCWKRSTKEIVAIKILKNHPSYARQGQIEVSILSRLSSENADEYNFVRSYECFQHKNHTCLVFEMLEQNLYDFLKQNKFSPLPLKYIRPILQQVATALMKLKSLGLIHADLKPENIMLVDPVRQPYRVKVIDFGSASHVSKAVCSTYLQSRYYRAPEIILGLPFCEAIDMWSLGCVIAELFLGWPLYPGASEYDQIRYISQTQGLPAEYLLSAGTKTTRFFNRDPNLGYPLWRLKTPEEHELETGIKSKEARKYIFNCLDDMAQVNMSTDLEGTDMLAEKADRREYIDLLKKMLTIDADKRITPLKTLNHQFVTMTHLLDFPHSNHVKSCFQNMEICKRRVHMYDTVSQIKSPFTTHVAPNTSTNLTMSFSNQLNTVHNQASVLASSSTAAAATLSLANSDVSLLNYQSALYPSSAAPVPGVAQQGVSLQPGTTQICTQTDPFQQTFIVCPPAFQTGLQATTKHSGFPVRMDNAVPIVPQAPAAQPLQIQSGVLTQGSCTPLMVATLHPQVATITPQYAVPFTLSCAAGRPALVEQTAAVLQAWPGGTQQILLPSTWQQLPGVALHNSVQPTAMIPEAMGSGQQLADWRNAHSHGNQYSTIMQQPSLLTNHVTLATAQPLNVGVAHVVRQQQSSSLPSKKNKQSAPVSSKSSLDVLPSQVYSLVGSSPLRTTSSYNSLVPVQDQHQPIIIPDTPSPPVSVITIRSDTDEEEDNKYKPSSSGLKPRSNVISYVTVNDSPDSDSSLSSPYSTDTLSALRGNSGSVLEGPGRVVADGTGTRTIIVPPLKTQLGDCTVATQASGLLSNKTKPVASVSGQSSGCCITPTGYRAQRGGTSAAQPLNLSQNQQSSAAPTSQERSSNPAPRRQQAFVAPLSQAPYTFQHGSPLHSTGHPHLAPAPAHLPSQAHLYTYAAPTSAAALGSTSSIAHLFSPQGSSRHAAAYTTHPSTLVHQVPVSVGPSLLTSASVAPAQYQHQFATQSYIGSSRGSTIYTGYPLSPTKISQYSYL

[16] = target: Casein kinase I isoform gamma-1 (Homo sapiens) (UniProt Q9HCP0); assay: Inhibition of CSNK1G1 (unknown origin) assessed as residual ligand binding level at 10000 nM relative to control
[17] = target: Dual specificity tyrosine-phosphorylation-regulated kinase 2 (Homo sapiens) (UniProt Q92630); assay: Inhibition of DYRK2 (unknown origin) assessed as residual ligand binding level at 10000 nM relative to control
[18] = target: Casein kinase I isoform delta (Homo sapiens) (UniProt P48730); assay: Inhibition of CSNK1D (unknown origin) assessed as residual ligand binding level at 10000 nM relative to control
Casein kinase I isoform delta (Homo sapiens), sequence (P48730 whole entry, looked up, canonical isoform): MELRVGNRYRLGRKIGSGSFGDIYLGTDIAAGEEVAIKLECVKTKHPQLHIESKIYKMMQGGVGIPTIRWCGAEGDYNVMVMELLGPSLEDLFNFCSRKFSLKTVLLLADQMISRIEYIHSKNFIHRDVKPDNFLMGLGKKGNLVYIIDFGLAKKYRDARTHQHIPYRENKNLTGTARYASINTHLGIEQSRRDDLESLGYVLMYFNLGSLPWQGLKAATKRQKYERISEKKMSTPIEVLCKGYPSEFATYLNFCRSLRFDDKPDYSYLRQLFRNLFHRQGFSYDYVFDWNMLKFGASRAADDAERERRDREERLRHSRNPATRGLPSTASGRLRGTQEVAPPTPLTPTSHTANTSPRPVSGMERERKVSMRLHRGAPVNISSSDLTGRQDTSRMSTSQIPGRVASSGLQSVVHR

[19] = target: TGF-beta receptor type-1 (Homo sapiens) (UniProt P36897); assay: Inhibition of TGFBR1 (unknown origin) assessed as residual ligand binding level at 10000 nM relative to control
[20] = target: Mitogen-activated protein kinase 14 (Homo sapiens) (UniProt Q16539); assay: Inhibition of p38-alpha (unknown origin) assessed as residual ligand binding level at 10000 nM relative to control
[21] = target: Casein kinase I isoform alpha-like (Homo sapiens) (UniProt Q8N752); assay: Inhibition of CSNK1A1L (unknown origin) assessed as residual ligand binding level at 10000 nM relative to control
[22] = target: Casein kinase I isoform epsilon (Homo sapiens) (UniProt P49674); assay: Inhibition of CSNK1E (unknown origin) assessed as residual ligand binding level at 10000 nM relative to control
[23] = target: Cyclin-dependent kinase 19 (Homo sapiens) (UniProt Q9BWU1); assay: Inhibition of CDK19(CDK11) (unknown origin) assessed as residual ligand binding level at 10000 nM relative to control
[24] = target: Serine/threonine-protein kinase pim-1 (Homo sapiens) (UniProt P11309); assay: Inhibition of PIM1 (unknown origin) assessed as residual ligand binding level at 10000 nM relative to control
Serine/threonine-protein kinase pim-1 (Homo sapiens), sequence (P11309 whole entry, looked up): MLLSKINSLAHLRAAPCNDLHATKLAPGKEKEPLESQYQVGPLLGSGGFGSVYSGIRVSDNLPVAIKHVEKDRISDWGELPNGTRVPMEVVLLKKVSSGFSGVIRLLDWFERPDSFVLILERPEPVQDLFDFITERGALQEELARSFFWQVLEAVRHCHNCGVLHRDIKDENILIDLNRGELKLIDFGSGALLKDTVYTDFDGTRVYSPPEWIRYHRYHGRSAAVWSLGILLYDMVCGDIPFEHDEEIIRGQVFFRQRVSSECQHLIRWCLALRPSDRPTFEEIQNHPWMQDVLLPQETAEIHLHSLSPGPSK

[25] = Rescue of cell survival defect in RPS19-deficient erythroid progenitor cells isolated from mouse model of DBA assessed as live cell levels at 5 uM by 7-AAD dye based FACS analysis (reference value: 31%); type: functional
[26] = Rescue of cell survival defect in RPS19-deficient erythroid progenitor cells isolated from mouse model of DBA assessed as c-kit+ progenitor cell levels at 5 uM by 7-AAD dye based FACS analysis (reference value: 38%); type: functional
[27] = target: T1, CDK8/CDK19 (Mus musculus); assay: Inhibition of CDK8/CDK19 assessed as rescue of proliferation of RPS19-deficient erythroid progenitor cells isolated from mouse model of DBA by cell-based phenotypic screening assay relative to control; type: tissue-based

Structure (SMILES): CN(C)C(=O)Cc1ccc(N2CCCN(c3ccnc4sc(C(N)=O)c(N)c34)CC2)cc1
Activity (Mus musculus): Active | inhibition [1]: Dose-dependent effect | Activity [2]: Active | Activity [3]: 63% | Activity [4]: Active | Activity [5]: Active | Activity [6]: Active | Activity [7]: 70%

Activity [8]: 41% | Activity [9]: 11% | Activity (Homo sapiens): 94% | Activity [10]: 67% | Activity [11]: 50% | Activity [12]: 72% | Activity [13]: 73% | Activity [15]: 61% | Activity [16]: 84% | Activity [17]: 46% | Activity [18]: 10% | Activity [19]: 95% | Activity [20]: 88% | Activity [21]: 25% | Activity [22]: 14% | Activity [23]: 0% | Activity [24]: 87%
Structure (SMILES): COCc1cc(C)nc2sc(C(N)=O)c(N)c12
Activity (Mus musculus): Active | Activity [14]: 84%

inhibition [1]: Dose-dependent effect
Structure (SMILES): NC(=O)c1sc2nccc(N3CCCN(c4ccccc4)CC3)c2c1N
Activity (Mus musculus): Active

Structure (SMILES): COc1ccc(-c2cc(C3CC3)nc3sc(C(N)=O)c(N)c23)cc1
Activity (Mus musculus): Active

inhibition [1]: Dose-dependent effect
Structure (SMILES): CN(C)c1ccnc2sc(C(N)=O)c(N)c12
Activity (Mus musculus): Active

Structure (SMILES): Cn1cc(-c2ccc(-c3cncc(Cl)c3N3CCC4(CCNC4=O)CC3)cc2)cn1
Activity (Mus musculus): Active

Structure (SMILES): N#Cc1ccc2ncnc(NCCc3ccccc3)c2c1
Activity (Mus musculus): Active | Activity [25]: 77% | Activity [26]: 65%

Structure (SMILES): Cc1c(C(N)=O)sc2nc(C(F)(F)F)cc(N)c12
Activity (Mus musculus): Active

Structure (SMILES): CCc1nc2sc(C(N)=O)c(N)c2c2c1CCCC2
Activity (Mus musculus): Active

ECmax [27]: inactive
Structure (SMILES): Cn1ncc2cc(-c3cnc(N)c(Cl)c3N3CCC4(CCNC4=O)CC3)ccc21
Activity (Mus musculus): Active

Structure (SMILES): Cc1c(Br)c(Br)c2c3c1nc(N1CCNCC1)n3CCC2
Activity (Mus musculus): Active | Activity [2]: Active | Activity [4]: Active | Activity [5]: Active | Activity [6]: Active

Structure (SMILES): CN1CCN(C(=O)c2ccc3cc(CCNc4ncnc5ccc(C#N)cc45)ccc3c2)CC1
Activity (Mus musculus): Active | Activity [2]: Active | Activity [4]: Active | Activity [5]: Active | Activity [6]: Active
